The source of these data is the supplement of paper PMC10307832.

Holding throughout (assay): relative viability (nuclei count vs DMSO), 5 days (fraction); higher = more cells survive
Compound in the assay “GW-2580 + Luminespib”: COC1=CC=C(C=C1)COC2=C(C=C(C=C2)CC3=CN=C(N=C3N)N)OC [GW-2580] + CCNC(=O)c1noc(-c2cc(C(C)C)c(O)cc2O)c1-c1ccc(CN2CCOCC2)cc1 [Luminespib] (partner 0.01 µM)
Summed up: (§1)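 For relative viability, nuclei counts in treated wells were divided by those in vehicle wells. Lung cancer cell lines had been pin-tool dosed in 1536-well plates the day after seeding and cultured for 5 days, then fixed and stained in one step (final 0.05% Triton X-100, 1% formaldehyde, 1 ug/ml Hoechst) and imaged at 4×. Doses were one drug alone or a fixed anchor-drug dose plus five library-drug doses (not always all listed) in √10 steps, and values are duplicate-plate medians.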

Compound in the assay “GW-2580 + Foretinib”: COC1=CC=C(C=C1)COC2=C(C=C(C=C2)CC3=CN=C(N=C3N)N)OC [GW-2580] + COc1cc2c(Oc3ccc(NC(=O)C4(C(=O)Nc5ccc(F)cc5)CC4)cc3F)ccnc2cc1OCCCN1CCOCC1 [Foretinib] (partner 0.25 µM)
Summed up:
as §1

Compound in the assay “GW-2580 + Pictilisib”: COC1=CC=C(C=C1)COC2=C(C=C(C=C2)CC3=CN=C(N=C3N)N)OC [GW-2580] + CS(=O)(=O)N1CCN(Cc2cc3nc(-c4cccc5[nH]ncc45)nc(N4CCOCC4)c3s2)CC1 [Pictilisib] (partner 1 µM)
Summed up:
as §1

Compound in the assay “Fedratinib + Linsitinib”: Cc1cnc(Nc2ccc(OCCN3CCCC3)cc2)nc1Nc1cccc(S(=O)(=O)NC(C)(C)C)c1 [Fedratinib] + C[C@]1(O)C[C@@H](c2nc(-c3ccc4ccc(-c5ccccc5)nc4c3)c3c(N)nccn32)C1 [Linsitinib] (partner 1 µM)
Summed up: as §1

Compound in the assay “GW-2580 + Decitabine”: COC1=CC=C(C=C1)COC2=C(C=C(C=C2)CC3=CN=C(N=C3N)N)OC [GW-2580] + Nc1ncn([C@H]2C[C@H](O)[C@@H](CO)O2)c(=O)n1 [Decitabine] (partner 2 µM)
In short, it runs like this: as §1

For the cell line NCI-H2228, the relative viability in the assay with GW-2580 + Luminespib (first compound 0.08 µM) stood at 0.167; in the assay with GW-2580 + Luminespib (first compound 0.8 µM) it was 0.185; in the assay with GW-2580 + Luminespib (first compound 2.53 µM), 0.0943; with GW-2580 + Luminespib (first compound 8 µM), 0.183; with GW-2580 + Foretinib (first compound 0.08 µM) it was 0.947; with GW-2580 + Foretinib (first compound 0.8 µM), 0.95. Besides, the relative viability was determined as 0.879 in the assay with GW-2580 + Foretinib (first compound 2.53 µM); 0.848 with GW-2580 + Foretinib (first compound 8 µM); 0.425 with GW-2580 + Pictilisib (first compound 0.08 µM); 0.285 with GW-2580 + Pictilisib (first compound 0.8 µM); 0.327 with GW-2580 + Pictilisib (first compound 2.53 µM); 0.417 in the assay with GW-2580 + Pictilisib (first compound 8 µM). In addition, the relative viability with Fedratinib + Linsitinib (first compound 0.1 µM) amounted to 0.609; with Fedratinib + Linsitinib (first compound 0.3162 µM), 0.837; with Fedratinib + Linsitinib (first compound 1 µM), 0.543.

In the case of SW 900, the relative viability in the assay with GW-2580 + Luminespib (first compound 0.08 µM) was 0.17; in the assay with GW-2580 + Luminespib (first compound 0.8 µM), 0.182; in the assay with GW-2580 + Luminespib (first compound 2.53 µM) it was 0.161; with GW-2580 + Luminespib (first compound 8 µM) it was 0.146; with GW-2580 + Foretinib (first compound 0.08 µM), 0.831; with GW-2580 + Foretinib (first compound 0.8 µM), 0.905. The relative viability in the assay with GW-2580 + Foretinib (first compound 2.53 µM) was 1.37; with GW-2580 + Foretinib (first compound 8 µM), 0.878; in the assay with GW-2580 + Decitabine (first compound 0.08 µM), 0.467; in the assay with GW-2580 + Decitabine (first compound 0.8 µM), 0.45; with GW-2580 + Decitabine (first compound 2.53 µM) it was 0.422; with GW-2580 + Decitabine (first compound 8 µM) it was 0.472.

Turning to NCI-H1563, the relative viability amounted to 0.546 with GW-2580 + Luminespib (first compound 0.08 µM); 0.522 with GW-2580 + Luminespib (first compound 0.8 µM); 0.484 in the assay with GW-2580 + Luminespib (first compound 2.53 µM); 0.545 in the assay with GW-2580 + Luminespib (first compound 8 µM); 0.886 in the assay with GW-2580 + Foretinib (first compound 0.08 µM); 0.961 with GW-2580 + Foretinib (first compound 0.8 µM). Also, the relative viability in the assay with GW-2580 + Foretinib (first compound 2.53 µM) is 0.886; with GW-2580 + Foretinib (first compound 8 µM), 0.905; in the assay with GW-2580 + Pictilisib (first compound 0.08 µM), 0.686; with GW-2580 + Pictilisib (first compound 0.8 µM) it was 0.661; with GW-2580 + Pictilisib (first compound 2.53 µM) it was 0.655; with GW-2580 + Pictilisib (first compound 8 µM), 0.642. The relative viability with Fedratinib + Linsitinib (first compound 0.1 µM) came to 1.16; with Fedratinib + Linsitinib (first compound 0.3162 µM), 1.18; with Fedratinib + Linsitinib (first compound 1 µM), 1.16.

Regarding A549, the relative viability with GW-2580 + Foretinib (first compound 0.08 µM) was determined as 1.01; in the assay with GW-2580 + Foretinib (first compound 0.8 µM) it was 0.577; in the assay with GW-2580 + Foretinib (first compound 2.53 µM), 1.06; in the assay with GW-2580 + Foretinib (first compound 8 µM), 0.902; with GW-2580 + Pictilisib (first compound 0.08 µM) it was 0.575; with GW-2580 + Pictilisib (first compound 0.8 µM) it was 0.491. Also, the relative viability in the assay with GW-2580 + Pictilisib (first compound 2.53 µM) came to 0.486; with GW-2580 + Pictilisib (first compound 8 µM), 0.303; with GW-2580 + Decitabine (first compound 0.8 µM), 0.264; with GW-2580 + Decitabine (first compound 2.53 µM) it was 0.21; in the assay with GW-2580 + Decitabine (first compound 8 µM) it was 0.288; with Fedratinib + Linsitinib (first compound 0.1 µM), 0.56. In addition, the relative viability with Fedratinib + Linsitinib (first compound 0.3162 µM) is 0.539; with Fedratinib + Linsitinib (first compound 1 µM), 0.601.

As to NCI-H2342, the relative viability amounted to 0.788 with GW-2580 + Luminespib (first compound 0.08 µM); 0.77 with GW-2580 + Luminespib (first compound 0.8 µM); 0.859 with GW-2580 + Luminespib (first compound 2.53 µM); 0.714 with GW-2580 + Luminespib (first compound 8 µM); 1.02 with GW-2580 + Foretinib (first compound 0.08 µM); 1.05 in the assay with GW-2580 + Foretinib (first compound 0.8 µM). Also, the relative viability with GW-2580 + Foretinib (first compound 2.53 µM) was 0.942; in the assay with GW-2580 + Foretinib (first compound 8 µM), 1.07; in the assay with GW-2580 + Decitabine (first compound 0.08 µM) it was 0.673; with GW-2580 + Decitabine (first compound 0.8 µM), 0.654; with GW-2580 + Decitabine (first compound 2.53 µM), 0.692; in the assay with GW-2580 + Decitabine (first compound 8 µM) it was 0.735.

On to NCI-H2170, for which the relative viability in the assay with GW-2580 + Luminespib (first compound 0.08 µM) was found to be 0.827; with GW-2580 + Luminespib (first compound 0.8 µM) it was 0.572; with GW-2580 + Luminespib (first compound 2.53 µM) it was 0.851; in the assay with GW-2580 + Luminespib (first compound 8 µM) it was 0.594; in the assay with GW-2580 + Foretinib (first compound 0.08 µM) it was 1.05; with GW-2580 + Foretinib (first compound 0.8 µM), 0.957. For the same cell line, the relative viability with GW-2580 + Foretinib (first compound 2.53 µM) is 0.958; in the assay with GW-2580 + Foretinib (first compound 8 µM), 1.04; with GW-2580 + Pictilisib (first compound 0.08 µM) it was 0.316; with GW-2580 + Pictilisib (first compound 0.8 µM), 0.353; with GW-2580 + Pictilisib (first compound 2.53 µM) it was 0.304; in the assay with GW-2580 + Pictilisib (first compound 8 µM), 0.287. The relative viability came out at 0.521 with GW-2580 + Decitabine (first compound 0.08 µM), 0.464 with GW-2580 + Decitabine (first compound 0.8 µM), 0.47 in the assay with GW-2580 + Decitabine (first compound 2.53 µM) and 0.467 with GW-2580 + Decitabine (first compound 8 µM).

For NCI-H1623, the relative viability in the assay with GW-2580 + Luminespib (first compound 0.08 µM) was 0.382; in the assay with GW-2580 + Luminespib (first compound 0.8 µM), 0.43; with GW-2580 + Luminespib (first compound 2.53 µM), 0.482; with GW-2580 + Luminespib (first compound 8 µM) it was 0.471; with GW-2580 + Foretinib (first compound 0.08 µM), 0.866; in the assay with GW-2580 + Foretinib (first compound 0.8 µM), 1.01. The relative viability with GW-2580 + Foretinib (first compound 2.53 µM) stood at 0.725; in the assay with GW-2580 + Foretinib (first compound 8 µM), 0.986.

For the cell line NCI-H522, the relative viability came out at 1.22 in the assay with GW-2580 + Luminespib (first compound 0.08 µM); 1.57 with GW-2580 + Luminespib (first compound 0.8 µM); 1.14 with GW-2580 + Luminespib (first compound 2.53 µM); 1.24 in the assay with GW-2580 + Luminespib (first compound 8 µM); 0.738 with GW-2580 + Decitabine (first compound 0.08 µM); 0.62 with GW-2580 + Decitabine (first compound 0.8 µM). The values for the relative viability in the assay with GW-2580 + Decitabine (first compound 2.53 µM) and in the assay with GW-2580 + Decitabine (first compound 8 µM) were 0.668 and 0.682, respectively.

In the case of IA-LM, the relative viability with GW-2580 + Foretinib (first compound 0.08 µM) was determined as 1.17; with GW-2580 + Foretinib (first compound 0.8 µM), 1.28; with GW-2580 + Foretinib (first compound 2.53 µM), 1.26; with GW-2580 + Foretinib (first compound 8 µM) it was 0.952; with GW-2580 + Pictilisib (first compound 0.08 µM), 0.315; with GW-2580 + Pictilisib (first compound 0.8 µM), 0.324. For the same cell line, the relative viability with GW-2580 + Pictilisib (first compound 2.53 µM) stood at 0.398; with GW-2580 + Pictilisib (first compound 8 µM), 0.405; in the assay with Fedratinib + Linsitinib (first compound 0.1 µM), 0.547; with Fedratinib + Linsitinib (first compound 0.3162 µM), 0.546; with Fedratinib + Linsitinib (first compound 1 µM) it was 0.786.

Regarding CAL-12T, the relative viability in the assay with GW-2580 + Luminespib (first compound 0.08 µM) stood at 0.335; with GW-2580 + Luminespib (first compound 0.8 µM) it was 0.439; with GW-2580 + Luminespib (first compound 2.53 µM), 0.347; in the assay with GW-2580 + Luminespib (first compound 8 µM), 0.575; with GW-2580 + Foretinib (first compound 0.08 µM), 1.2; with GW-2580 + Foretinib (first compound 0.8 µM), 1.25. Besides, the relative viability in the assay with GW-2580 + Foretinib (first compound 2.53 µM) worked out at 1.11; with GW-2580 + Foretinib (first compound 8 µM), 1.06; with GW-2580 + Pictilisib (first compound 0.08 µM), 0.45; in the assay with GW-2580 + Pictilisib (first compound 0.8 µM) it was 0.739; with GW-2580 + Pictilisib (first compound 2.53 µM), 0.341; in the assay with GW-2580 + Pictilisib (first compound 8 µM), 0.513. In addition, the relative viability amounted to 0.739 with Fedratinib + Linsitinib (first compound 0.1 µM), 0.819 with Fedratinib + Linsitinib (first compound 0.3162 µM) and 0.853 in the assay with Fedratinib + Linsitinib (first compound 1 µM).

EBC-1: the relative viability was found to be 0.0973 with GW-2580 + Foretinib (first compound 0.08 µM); 0.114 with GW-2580 + Foretinib (first compound 0.8 µM); 0.107 in the assay with GW-2580 + Foretinib (first compound 2.53 µM); 0.0908 with GW-2580 + Foretinib (first compound 8 µM); 0.309 in the assay with GW-2580 + Pictilisib (first compound 0.08 µM); 0.374 with GW-2580 + Pictilisib (first compound 0.8 µM). Further, the relative viability with GW-2580 + Pictilisib (first compound 2.53 µM) stood at 0.323; in the assay with GW-2580 + Pictilisib (first compound 8 µM), 0.296; with Fedratinib + Linsitinib (first compound 0.1 µM), 0.764; in the assay with Fedratinib + Linsitinib (first compound 0.3162 µM), 0.937; in the assay with Fedratinib + Linsitinib (first compound 1 µM), 0.814.
